Results: patent publication US12077503B2, “Substituted cyclic amides and their use as herbicides” (FMC CORPORATION, priority 2015, dated 2024)

Legend:
Assay type in all cases: in vivo
corn (Zea mays) [1] = assay: Test G Pre-Emergence Protocol; details: Zea mays, pre-emergence, 312 h, evaluated after 13 days; for plant injury at 15.625 g/ha: 15.625 g ai/ha; for plant injury at 15.625 g/ha / plant injury at 250 g/ha: read-out: Corn damage rating (100=total damage to plant; 0=no damage to plant); for plant injury at 62.5 g/ha: 62.5 g ai/ha, 100=total damage to plant, 0=no damage to plant, read-out: plant damage rating, Corn; for plant injury at 250 g/ha: 250 g ai/ha
Procedure, shortened: (§1)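 Test compound in 0.5% Tween 20 acetone/water (50:50) was applied at three rates (15.625, 62.5, 250 g/ha) to soil sown one day earlier. After 13 days plants were scored for injury, where 0 means unaffected and 100 means completely damaged.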

[2] = tested on: velvetleaf (Abutilon theophrasti); assay: Test G Pre-Emergence Protocol; details: Abutilon theophrasti, pre-emergence, 312 h, evaluated after 13 days; for pest or weed control at 15.625 g/ha: 15.625 g ai/ha; for pest or weed control at 15.625 g/ha / pest or weed control at 250 g/ha: read-out: Velvetleaf damage rating (100=total damage to plant; 0=no damage to plant); for pest or weed control at 62.5 g/ha: 62.5 g ai/ha, 100=total damage to plant, 0=no damage to plant, read-out: plant damage rating, Velvetleaf; for pest or weed control at 250 g/ha: 250 g ai/ha
Procedure, shortened: as §1

[3] = tested on: giant foxtail (Setaria faberi); assay: Test G Pre-Emergence Protocol; details: Setaria faberi, pre-emergence, 312 h, evaluated after 13 days; for pest or weed control at 15.625 g/ha: 15.625 g ai/ha; for pest or weed control at 15.625 g/ha / pest or weed control at 250 g/ha: read-out: Foxtail, Giant damage rating (100=total damage to plant; 0=no damage to plant); for pest or weed control at 62.5 g/ha: 62.5 g ai/ha, 100=total damage to plant, 0=no damage to plant, read-out: plant damage rating, Foxtail, Giant; for pest or weed control at 250 g/ha: 250 g ai/ha
Procedure, shortened: as §1

[4] = tested on: ivy-leaved morning glory (Ipomoea hederacea); assay: Test G Pre-Emergence Protocol; details: Ipomoea, pre-emergence, 312 h, evaluated after 13 days; for pest or weed control at 15.625 g/ha: 15.625 g ai/ha, read-out: Morning-glory, Ivy-leaved damage rating (100=total damage to plant; 0=no damage to plant); for pest or weed control at 62.5 g/ha: 62.5 g ai/ha, 100=total damage to plant, 0=no damage to plant, read-out: plant damage rating, Morningglory, Ivy-leaved; for pest or weed control at 250 g/ha: 250 g ai/ha, read-out: Morningglory, Ivy-leaved damage rating (100=total damage to plant; 0=no damage to plant)
Procedure, shortened: as §1

[5] = tested on: barnyardgrass (Echinochloa crus-galli); assay: Test G Pre-Emergence Protocol; details: Echinochloa crus-galli, pre-emergence, 312 h, evaluated after 13 days; for pest or weed control at 15.625 g/ha: 15.625 g ai/ha, read-out: Barnyard grass damage rating (100=total damage to plant; 0=no damage to plant); for pest or weed control at 62.5 g/ha: 62.5 g ai/ha, 100=total damage to plant, 0=no damage to plant, read-out: plant damage rating, Barnyardgrass; for pest or weed control at 250 g/ha: 250 g ai/ha, read-out: Barnyardgrass damage rating (100=total damage to plant; 0=no damage to plant)
Procedure, shortened: as §1

[6] = tested on: redroot pigweed (Amaranthus retroflexus); assay: Test G Pre-Emergence Protocol; details: Amaranthus retroflexus, pre-emergence, 312 h, evaluated after 13 days; for pest or weed control at 15.625 g/ha: 15.625 g ai/ha; for pest or weed control at 15.625 g/ha / pest or weed control at 250 g/ha: read-out: Pigweed, Redroot damage rating (100=total damage to plant; 0=no damage to plant); for pest or weed control at 62.5 g/ha: 62.5 g ai/ha, 100=total damage to plant, 0=no damage to plant, read-out: plant damage rating, Pigweed, Redroot; for pest or weed control at 250 g/ha: 250 g ai/ha
Procedure, shortened: as §1

corn (Zea mays) [7] = assay: Test G Post-Emergence Protocol; details: Zea mays, post-emergence, 312 h; for plant injury at 15.625 g/ha: 15.625 g ai/ha, evaluated after 13 days (100=total damage to plant; 0=no damage to plant), read-out: Corn damage rating; for plant injury at 62.5 g/ha: 62.5 g ai/ha, read-out: Corn damage rating (100=total damage to plant; 0=no damage to plant); for plant injury at 62.5 g/ha / plant injury at 250 g/ha: evaluated after 13 days; for plant injury at 250 g/ha: 250 g ai/ha, read-out: damage to plant, Corn (100=total damage to plant; 0=no damage to plant)
Procedure, shortened: (§2)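 Post-emergence herbicidal damage, scored visually 0–100 at 13 days. Application at 15.625, 62.5 or 250 g/ha onto 8-day-old plants grown under glasshouse control.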

[8] = tested on: velvetleaf (Abutilon theophrasti); assay: Test G Post-Emergence Protocol; details: Abutilon theophrasti, post-emergence, 312 h; for pest or weed control at 15.625 g/ha: 15.625 g ai/ha, evaluated after 13 days (100=total damage to plant; 0=no damage to plant), read-out: Velvetleaf damage rating; for pest or weed control at 62.5 g/ha: 62.5 g ai/ha, read-out: Velvetleaf damage rating (100=total damage to plant; 0=no damage to plant); for pest or weed control at 62.5 g/ha / pest or weed control at 250 g/ha: evaluated after 13 days; for pest or weed control at 250 g/ha: 250 g ai/ha, read-out: damage to plant, Velvetleaf (100=total damage to plant; 0=no damage to plant)
Procedure, shortened: as §2

[9] = tested on: giant foxtail (Setaria faberi); assay: Test G Post-Emergence Protocol; details: Setaria faberi, post-emergence, 312 h; for pest or weed control at 15.625 g/ha: 15.625 g ai/ha, evaluated after 13 days (100=total damage to plant; 0=no damage to plant), read-out: Foxtail, Giant damage rating; for pest or weed control at 62.5 g/ha: 62.5 g ai/ha, read-out: Foxtail, Giant damage rating (100=total damage to plant; 0=no damage to plant); for pest or weed control at 62.5 g/ha / pest or weed control at 250 g/ha: evaluated after 13 days; for pest or weed control at 250 g/ha: 250 g ai/ha, read-out: damage to plant, Foxtail, Giant (100=total damage to plant; 0=no damage to plant)
Procedure, shortened: as §2

[10] = tested on: ivy-leaved morning glory (Ipomoea hederacea); assay: Test G Post-Emergence Protocol; details: Ipomoea, post-emergence, 312 h; for pest or weed control at 15.625 g/ha: 15.625 g ai/ha, evaluated after 13 days (100=total damage to plant; 0=no damage to plant), read-out: Morningglory, Ivy-leaved damage rating; for pest or weed control at 62.5 g/ha: 62.5 g ai/ha, read-out: Morningglory, Ivy-leaved damage rating (100=total damage to plant; 0=no damage to plant); for pest or weed control at 62.5 g/ha / pest or weed control at 250 g/ha: evaluated after 13 days; for pest or weed control at 250 g/ha: 250 g ai/ha, read-out: damage to plant, Morningglory, Ivy-leaved (100=total damage to plant; 0=no damage to plant)
Procedure, shortened: as §2

[11] = tested on: barnyardgrass (Echinochloa crus-galli); assay: Test G Post-Emergence Protocol; details: Echinochloa crus-galli, post-emergence, 312 h; for pest or weed control at 15.625 g/ha: 15.625 g ai/ha, evaluated after 13 days (100=total damage to plant; 0=no damage to plant), read-out: Barnyardgrass damage rating; for pest or weed control at 62.5 g/ha: 62.5 g ai/ha, read-out: Barnyardgrass damage rating (100=total damage to plant; 0=no damage to plant); for pest or weed control at 62.5 g/ha / pest or weed control at 250 g/ha: evaluated after 13 days; for pest or weed control at 250 g/ha: 250 g ai/ha, read-out: damage to plant, Barnyardgrass (100=total damage to plant; 0=no damage to plant)
Procedure, shortened: as §2

[12] = tested on: redroot pigweed (Amaranthus retroflexus); assay: Test G Post-Emergence Protocol; details: Amaranthus retroflexus, post-emergence, 312 h; for pest or weed control at 15.625 g/ha: 15.625 g ai/ha, evaluated after 13 days (100=total damage to plant; 0=no damage to plant), read-out: Pigweed, Redroot damage rating; for pest or weed control at 62.5 g/ha: 62.5 g ai/ha, read-out: Pigweed, Redroot damage rating (100=total damage to plant; 0=no damage to plant); for pest or weed control at 62.5 g/ha / pest or weed control at 250 g/ha: evaluated after 13 days; for pest or weed control at 250 g/ha: 250 g ai/ha, read-out: damage to plant, Pigweed, Redroot (100=total damage to plant; 0=no damage to plant)
Procedure, shortened: as §2

Compound | plant injury at 15.625 g/ha (corn (Zea mays) [1]) | plant injury at 62.5 g/ha (corn (Zea mays) [1]) | plant injury at 250 g/ha (corn (Zea mays) [1]) | pest or weed control at 15.625 g/ha [2] | pest or weed control at 62.5 g/ha [2] | pest or weed control at 250 g/ha [2] | pest or weed control at 15.625 g/ha [3] | pest or weed control at 62.5 g/ha [3] | pest or weed control at 250 g/ha [3] | pest or weed control at 15.625 g/ha [4] | pest or weed control at 62.5 g/ha [4] | pest or weed control at 250 g/ha [4] | pest or weed control at 15.625 g/ha [5] | pest or weed control at 62.5 g/ha [5] | pest or weed control at 250 g/ha [5] | pest or weed control at 15.625 g/ha [6] | pest or weed control at 62.5 g/ha [6] | pest or weed control at 250 g/ha [6] | plant injury at 15.625 g/ha (corn (Zea mays) [7]) | plant injury at 62.5 g/ha (corn (Zea mays) [7]) | further results
CC(C)c1cc(NC(=O)[C@@H]2C(=O)N(C)C[C@H]2c2ccc(C(F)(F)F)cc2)[nH]n1 (racemic) [Compound 1522] | 0% | 0% | 0% | 0% | 0% | 0% | 0% | 0% | 0% | 0% | 0% | 0% | 0% | 0% | 0% | 0% | 0% | 0% | 0% | 10% | plant injury at 250 g/ha (corn (Zea mays) [7]): 10%; pest or weed control at 15.625 g/ha [8]: 0%; pest or weed control at 62.5 g/ha [8]: 0%; pest or weed control at 250 g/ha [8]: 0%; pest or weed control at 15.625 g/ha [9]: 0%; pest or weed control at 62.5 g/ha [9]: 0%; pest or weed control at 250 g/ha [9]: 0%; pest or weed control at 15.625 g/ha [10]: 0%; pest or weed control at 62.5 g/ha [10]: 0%; pest or weed control at 250 g/ha [10]: 0%; pest or weed control at 15.625 g/ha [11]: 0%; pest or weed control at 62.5 g/ha [11]: 0%; pest or weed control at 250 g/ha [11]: 0%; pest or weed control at 15.625 g/ha [12]: 0%; pest or weed control at 62.5 g/ha [12]: 0%; pest or weed control at 250 g/ha [12]: 0%
CN1C[C@@H](c2ccc(C(F)(F)F)cc2)[C@H](C(=O)Nc2ccc(Cl)nc2)C1=O (racemic) [Compound 1525] | 0% | 0% | 0% | 0% | 0% | 0% | 0% | 10% | 30% | 0% | 0% | 0% | 0% | 0% | 40% | 0% | 0% | 0% | 0% | 0% | plant injury at 250 g/ha (corn (Zea mays) [7]): 10%; pest or weed control at 15.625 g/ha [8]: 0%; pest or weed control at 62.5 g/ha [8]: 0%; pest or weed control at 250 g/ha [8]: 0%; pest or weed control at 15.625 g/ha [9]: 0%; pest or weed control at 62.5 g/ha [9]: 0%; pest or weed control at 250 g/ha [9]: 10%; pest or weed control at 15.625 g/ha [10]: 0%; pest or weed control at 62.5 g/ha [10]: 0%; pest or weed control at 250 g/ha [10]: 20%; pest or weed control at 15.625 g/ha [11]: 0%; pest or weed control at 62.5 g/ha [11]: 0%; pest or weed control at 250 g/ha [11]: 0%; pest or weed control at 15.625 g/ha [12]: 0%; pest or weed control at 62.5 g/ha [12]: 0%; pest or weed control at 250 g/ha [12]: 0%
CN1C[C@@H](c2ccc(C(F)(F)F)cc2)[C@H](C(=O)Nc2cn(C)nn2)C1=O (racemic) [Compound 1527] | 0% | 0% | 0% | 0% | 0% | 0% | 0% | 0% | 0% | 0% | 0% | 0% | 0% | 0% | 0% | 0% | 0% | 0% | 10% | 10% | plant injury at 250 g/ha (corn (Zea mays) [7]): 10%; pest or weed control at 15.625 g/ha [8]: 0%; pest or weed control at 62.5 g/ha [8]: 0%; pest or weed control at 250 g/ha [8]: 0%; pest or weed control at 15.625 g/ha [9]: 0%; pest or weed control at 62.5 g/ha [9]: 0%; pest or weed control at 250 g/ha [9]: 0%; pest or weed control at 15.625 g/ha [10]: 0%; pest or weed control at 62.5 g/ha [10]: 0%; pest or weed control at 250 g/ha [10]: 0%; pest or weed control at 15.625 g/ha [11]: 0%; pest or weed control at 62.5 g/ha [11]: 0%; pest or weed control at 250 g/ha [11]: 0%; pest or weed control at 15.625 g/ha [12]: 0%; pest or weed control at 62.5 g/ha [12]: 0%; pest or weed control at 250 g/ha [12]: 0%
